{"source": "patent US20040014790A1", "about": "“Tartrate salt of thiazolidinedione derivative” (priority 2000, published 2004)", "experiment": "Solid state stability of the drug substance (HPLC assay for final content and degradation products)", "assay_type": "physicochemical", "details": "1 month, product of Example 1", "procedure": "The solid state stability of the drug substance was determined by storing approximately 1.0 g of the material in a glass bottle at i) 40° C./75% Relative Humidity (RH), open exposure, for 1 month and b) at 50° C., closed, for 1 month. The material was assayed by HPLC for final content and degradation products in both cases.", "key": {"[1]": {"details": "40° C./75% Relative Humidity (RH), open exposure"}}, "data": [{"smiles": "CN(CCOc1ccc(CC2SC(=O)NC2=O)cc1)c1ccccn1.O=C(O)C(O)C(O)C(=O)O", "note": "(racemic) [DL-Tartrate, 5-[4-[2-(N-methyl-N-(2-pyridyl)amino)ethoxy]benzyl]thiazolidine-2,4-dione DL tartrate]", "values": [{"measurement": "Solid state stability: HPLC assay", "setting": "[1]", "result": 97, "unit": "% initial"}, {"measurement": "Solid state stability: degradation observed", "setting": "[1]", "result": "No significant degradation observed"}, {"measurement": "Solid state stability: HPLC assay", "setting": "50° C., closed", "result": 99, "unit": "% initial"}, {"measurement": "Solid state stability: degradation observed", "setting": "50° C., closed", "result": "No significant degradation observed"}]}]}
